What was measured:
Type in all cases: biochemical
PKC theta kinase = PKC theta kinase (Homo sapiens, UniProt Q04759); assay: PKC theta coupled-enzyme kinase assay (NADH consumption); conditions: 240 μM ATP, 18 nM PKC theta, 30° C.
Method: An assay buffer solution was prepared which consisted of 100 mM HEPES (pH 7.5), 10 mM MgCl2, 25 mM NaCl, 0.1 mM EDTA and 0.01% Brij. An enzyme buffer containing reagents to final assay concentrations of 0.00001% Triton X-100, 200 μg/mL Phosphatidylserine, 20 μg/mL Diacylglycerol, 360 μM NADH, 3 mM phosphoenolpyruvate, 70 μg/mL pyruvate kinase, 24 μg/mL lactate dehydrogenase, 2 mM DTT, 100 μM substrate peptide (ERMRPRKRQGSVRRRV SEQ ID NO. 1) and 18 nM PKC theta kinase was prepared in assay buffer. To 60 μL of this enzyme buffer, in a 384 well plate, was added 2 μL of VRT stock solution in DMSO. The mixture was allowed to equilibrate for 10 mins at 30° C. The enzyme reaction was initiated by the addition of 5 μL stock ATP solution prepared in assay buffer to a final assay concentration of 240 μM. Initial rate data was determined from the rate of change of absorbance at 340 nm (corresponding to stoichiometric consumption of NADH) using a Molecular Devices Spectramax plate reader (Sunnyvale, Calif.) over 15 mins at 30° C. For each Ki determination 12 data points covering the VRT concentration range of 0-20 μM were obtained in duplicate (DMSO stocks were prepared from an initial 10 mM VRT stock with subsequent 1:2 serial dilutions). Ki values were calculated from initial rate data by non-linear regression using the Prism software package (Prism 4.0a, Graphpad Software, San Diego, Calif.).

PKC delta kinase = PKC delta kinase (Homo sapiens, UniProt Q05655); assay: PKC delta coupled-enzyme kinase assay (NADH consumption); conditions: 150 μM ATP, 46 nM PKC delta, 30° C.
PKC delta kinase, sequence (Q05655 whole entry): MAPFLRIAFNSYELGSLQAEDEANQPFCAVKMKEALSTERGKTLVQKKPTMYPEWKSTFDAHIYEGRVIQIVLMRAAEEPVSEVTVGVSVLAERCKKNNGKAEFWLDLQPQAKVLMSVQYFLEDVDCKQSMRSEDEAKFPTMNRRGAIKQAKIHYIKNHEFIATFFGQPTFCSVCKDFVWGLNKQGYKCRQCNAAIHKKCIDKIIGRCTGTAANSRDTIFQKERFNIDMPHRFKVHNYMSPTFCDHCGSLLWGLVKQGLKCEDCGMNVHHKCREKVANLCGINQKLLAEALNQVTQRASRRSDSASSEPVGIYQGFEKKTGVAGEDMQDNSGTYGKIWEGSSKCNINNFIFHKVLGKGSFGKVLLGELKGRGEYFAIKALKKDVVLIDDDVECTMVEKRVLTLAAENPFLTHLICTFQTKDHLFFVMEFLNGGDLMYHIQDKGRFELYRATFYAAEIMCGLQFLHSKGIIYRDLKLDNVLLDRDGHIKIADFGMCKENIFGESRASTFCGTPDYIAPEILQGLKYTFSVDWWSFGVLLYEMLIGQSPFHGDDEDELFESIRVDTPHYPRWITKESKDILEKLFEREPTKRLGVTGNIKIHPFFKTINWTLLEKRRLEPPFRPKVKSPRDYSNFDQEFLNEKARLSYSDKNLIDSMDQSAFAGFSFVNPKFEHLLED
Method: An assay buffer solution was prepared which consisted of 100 mM HEPES (pH 7.5), 10 mM MgCl2, 25 mM NaCl, 0.1 mM EDTA and 0.01% Brij. An enzyme buffer containing reagents to final assay concentrations of 0.002% Triton X-100, 200 μg/mL Phosphatidylserine, 20 μg/mL Diacylglycerol, 360 μM NADH, 3 mM phosphoenolpyruvate, 70 μg/mL pyruvate kinase, 24 μg/mL lactate dehydrogenase, 2 mM DTT, 150 μM substrate peptide (ERMRPRKRQGSVRRRV SEQ ID NO. 2) and 46 nM PKC delta kinase was prepared in assay buffer. To 16 μL of this enzyme buffer, in a 384 well plate, was added 1 μL of VRT stock solution in DMSO. The mixture was allowed to equilibrate for 10 mins at 30° C. The enzyme reaction was initiated by the addition of 16 μL stock ATP solution prepared in assay buffer to a final assay concentration of 150 μM. Initial rate data was determined from the rate of change of absorbance at 340 nm (corresponding to stoichiometric consumption of NADH) using a Molecular Devices Spectramax plate reader (Sunnyvale, Calif.) over 15 mins at 30° C. For each Ki determination 12 data points covering the VRT concentration range of 0-20 μM were obtained in duplicate (DMSO stocks were prepared from an initial 10 mM VRT stock with subsequent 1:2 serial dilutions). Ki values were calculated from initial rate data by non-linear regression using the Prism software package (Prism 4.0a, Graphpad Software, San Diego, Calif.).

PKC alpha kinase = PKC alpha kinase (Homo sapiens, UniProt P17252); assay: PKC alpha coupled-enzyme kinase assay (NADH consumption); conditions: 130 μM ATP, 4.5 nM PKC alpha, 30° C.
Method: An assay buffer solution was prepared which consisted of 100 mM HEPES (pH 7.5), 10 mM MgCl2, 25 mM NaCl, 0.1 mM EDTA, 100 μM CaCl2 and 0.01% Brij. An enzyme buffer containing reagents to final assay concentrations of 0.002% Triton X-100, 100 μg/mL Phosphatidylserine, 20 μg/mL Diacylglycerol, 360 μM NADH, 3 mM phosphoenolpyruvate, 70 μg/mL pyruvate kinase, 24 μg/mL lactate dehydrogenase, 2 mM DTT, 150 μM substrate peptide (RRRRRKGSFKRKA SEQ ID NO. 1) and 4.5 nM PKC alpha kinase was prepared in assay buffer. To 16 μL of this enzyme buffer, in a 384 well plate, was added 1 μL of VRT stock solution in DMSO. The mixture was allowed to equilibrate for 10 mins at 30° C. The enzyme reaction was initiated by the addition of 16 μL stock ATP solution prepared in assay buffer to a final assay concentration of 130 μM. Initial rate data was determined from the rate of change of absorbance at 340 nm (corresponding to stoichiometric consumption of NADH) using a Molecular Devices Spectramax plate reader (Sunnyvale, Calif.) over 15 mins at 30° C. […] Ki values were calculated from initial rate data by non-linear regression using the Prism software package (Prism 4.0a, Graphpad Software, San Diego, Calif.).

PKC theta kinase, sequence (Q04759 whole entry): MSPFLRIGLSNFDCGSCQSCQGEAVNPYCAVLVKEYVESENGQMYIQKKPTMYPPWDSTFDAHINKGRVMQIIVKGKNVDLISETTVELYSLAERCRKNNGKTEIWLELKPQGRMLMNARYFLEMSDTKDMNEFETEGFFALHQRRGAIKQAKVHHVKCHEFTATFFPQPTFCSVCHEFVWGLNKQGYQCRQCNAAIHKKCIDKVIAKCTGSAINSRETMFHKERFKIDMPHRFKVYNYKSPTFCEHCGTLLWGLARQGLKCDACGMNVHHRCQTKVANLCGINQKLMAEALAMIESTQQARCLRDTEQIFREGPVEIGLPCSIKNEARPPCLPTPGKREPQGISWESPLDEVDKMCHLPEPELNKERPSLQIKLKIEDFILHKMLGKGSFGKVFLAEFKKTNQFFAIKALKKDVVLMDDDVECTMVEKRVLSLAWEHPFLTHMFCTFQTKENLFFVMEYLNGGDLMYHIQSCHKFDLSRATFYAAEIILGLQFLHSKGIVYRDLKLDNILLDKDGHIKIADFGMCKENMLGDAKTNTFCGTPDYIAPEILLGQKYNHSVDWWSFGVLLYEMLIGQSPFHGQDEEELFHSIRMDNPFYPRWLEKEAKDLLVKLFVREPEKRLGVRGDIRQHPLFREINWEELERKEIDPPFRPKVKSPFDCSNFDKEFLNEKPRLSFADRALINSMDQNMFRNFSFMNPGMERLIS

Work on `CCOc1ncnc2[nH]nc(-c3cccc(N4CCNC(CC(C)C)C4)n3)c12` (stereo not drawn) [Compound 1, 4-ethoxy-3-(6-(3-isobutylpiperazin-1-yl)pyridin-2-yl)-1H-pyrazolo[3,4-d]pyrimidine] yielded a Ki (PKC theta kinase) of under 2800 nM, a Ki (PKC delta kinase) of over 1250 nM and a Ki (PKC alpha kinase) of over 1250 nM.
`CC(C)[C@@](C)(O)[C@@H]1CN(c2nc(-c3n[nH]c4ncncc34)c(F)cc2F)CCN1` [Compound 2, (R)-2-((S)-4-(3,5-difluoro-6-(1H-pyrazolo[3,4-d]pyrimidin-3-yl)pyridin-2-yl)piperazin-2-yl)-3-methylbutan-2-ol] was tested, and the Ki (PKC theta kinase) was under 1 nM, the Ki (PKC delta kinase) was under 500 nM and the Ki (PKC alpha kinase) was under 2800 nM.

From patent US8809335B2, “Pyrazolopyrimidine kinase inhibitors” (Vertex Pharmaceuticals Incorporated, priority 2010, dated 2014)
